Counter-ions that a name gives are not always drawn.

One assay deals with T1, serotonin 4 receptor (5-HT4) (Cavia porcellus, UniProt O70528).
T1 construct: from tissue; host or cells: longitudinal muscle strips of guinea pig ileum (Harley guinea pigs)
T1 sequence (O70528 whole entry): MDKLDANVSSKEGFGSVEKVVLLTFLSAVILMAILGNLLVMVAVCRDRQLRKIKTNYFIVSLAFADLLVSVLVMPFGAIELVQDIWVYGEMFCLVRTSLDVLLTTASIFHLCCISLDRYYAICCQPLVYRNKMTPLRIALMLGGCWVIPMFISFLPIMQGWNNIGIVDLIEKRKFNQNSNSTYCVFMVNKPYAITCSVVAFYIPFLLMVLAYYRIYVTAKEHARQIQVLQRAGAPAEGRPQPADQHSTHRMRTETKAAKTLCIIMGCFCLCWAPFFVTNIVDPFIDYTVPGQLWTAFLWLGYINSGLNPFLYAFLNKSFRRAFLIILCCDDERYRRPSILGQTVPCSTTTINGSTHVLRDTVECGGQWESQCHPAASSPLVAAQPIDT
The experiment in a line: Stimulating activity on serotonin 4 receptor (twitch response in guinea pig ileum).
Conditions: not given
The class given is cell-based. Here is the method:
Stimulating activity on serotonin 4 receptor
From Harley guinea pigs weighing 250 to 400 g, a section of ileum 10 to 20 cm proximal to the ileocecal junction was removed. Longitudinal muscle strips obtained from the ileum were used for this assay. The preparations were suspended in Krebs' solution at 32 to 34° C., bubbled continuously with 95% O2 and 5% CO2, and subjected to initial tension of about 0.8 g. Responses were recorded isometrically. Twitch responses were evoked by electrical stimulation (0.2 Hz, 1 msec pulse duration). The preparations were stimulated at supramaximal voltage for 2 to 3 hours, and were then allowed to equilibrate for about 1 hour at submaximal voltage. […] The preparations were left for at least 45 minutes before cumulative addition of each agonist.
The quinolinecarboxylic acid derivatives of the present invention were employed as sample compounds. For comparison, the following compounds were employed. These compounds were diluted by dissolving them in distilled water or in DMSO.
The data obtained was analyzed by RS1 (BBN Software Product Co.).
As for `CC(C)n1c(=O)c(C(=O)OC2CC3CCC(C2)N3CCO)cc2ccccc21` (stereo not drawn) [Compound 37, Endo-8-(2-hydroxyethyl)-8-azabicyclo[3.2.1]oct-3-yl 1-isopropyl-2-oxo-1,2-dihydro-3-quinolinecarboxylate hydrochloride], the EC50 turned out to be 16.1 nM.

In the case of `CC(C)n1c(=O)c(C(=O)OC2CC3CCC(C2)N3CCCCO)cc2ccccc21` (stereo not drawn) [Compound 39, Endo-8-(4-hydroxybutyl)-8-azabicyclo[3.2.1]oct-3-yl 1-isopropyl-2-oxo-1,2-dihydro-3-quinolinecarboxylate hydrochloride], the EC50 was 16.6 nM.

`COCCN1[C@@H]2CC[C@H]1C[C@@H](OC(=O)c1cc3ccccc3n(C(C)C)c1=O)C2` [Compound 42, Endo-8-(2-methoxyethyl)-8-azabicyclo[3.2.1]oct-3-yl 1-isopropyl-2-oxo-1,2-dihydro-3-quinolinecarboxylate hydrochloride]: the EC50 is 18.4 nM.

In turn, `CSCCN1[C@@H]2CC[C@H]1C[C@@H](OC(=O)c1cc3ccccc3n(C(C)C)c1=O)C2` [Compound 45, Endo-8-(2-(methylthio)ethyl)-8-azabicyclo[3.2.1]oct-3-yl 1-isopropyl-2-oxo-1,2-dihydro-3-quinolinecarboxylate] registered an EC50 of 29.5 nM.

`CC(C)n1c(=O)c(C(=O)O[C@H]2C[C@H]3CC[C@@H](C2)N3CC2CCCCO2)cc2ccccc21` (stereo partly drawn) [Compound 48, Endo-8-(tetrahydropyran-2-methyl)-8-azabicyclo[3.2.1]oct-3-yl 1-isopropyl-2-oxo-1,2-dihydro-3-quinolinecarboxylate hydrochloride] came in with an EC50 of 55.9 nM. Same read-out and setting: in the case of `CC(C)n1c(=O)c(C(=O)OC2CC3CCC(C2)N3CCCO)cc2ccccc21` (stereo not drawn) [Compound 38, Endo-8-(3-hydroxypropyl)-8-azabicyclo[3.2.1]oct-3-yl 1-isopropyl-2-oxo-1,2-dihydro-3-quinolinecarboxylate] it was 11.9 nM; in that of `CC(C)n1c(=O)c(C(=O)NC2CC3CCC(C2)N3CCCCO)cc2ccccc21` (stereo not drawn) [Compound 6, Endo-N-(8-(4-hydroxybutyl)-8-azabicyclo[3.2.1]oct-3-yl)-1-isopropyl-2-oxo-1,2-dihydro-3-quinolinecarboxamide], 38.5 nM; in that of `CC(C)n1c(=O)c(C(=O)NC2CC3CCC(C2)N3CCO)cc2ccccc21` (stereo not drawn) [Compound 4, Endo-N-(8-(2-hydroxyethyl)-8-azabicyclo[3.2.1]oct-3-yl)-1-isopropyl-2-oxo-1,2-dihydro-3-quinolinecarboxamide], 45.9 nM. The same measure, in the same setting: in the case of `CC(C)n1c(=O)c(C(=O)O[C@H]2C[C@H]3CC[C@@H](C2)N3CCS(=O)(=O)c2ccccc2)cc2ccccc21` [Compound 46, Endo-8-(2-(phenylsulfonyl)ethyl)-8-azabicyclo[3.2.1]oct-3-yl 1-isopropyl-2-oxo-1,2-dihydro-3-quinolinecarboxylate] it was 46.5 nM; in that of `CC(C)n1c(=O)c(C(=O)O[C@H]2C[C@H]3CC[C@@H](C2)N3CCCCCCO)cc2ccccc21` [Compound 41, Endo-8-(6-hydroxyhexyl)-8-azabicyclo[3.2.1]oct-3-yl 1-isopropyl-2-oxo-1,2-dihydro-3-quinolinecarboxylate hydrochloride], 50.9 nM. `CCN(CC)CCN1[C@@H]2CC[C@H]1C[C@@H](OC(=O)c1cc3ccccc3n(C(C)C)c1=O)C2` [Compound 44, Endo-8-(2-diethylaminoethyl)-8-azabicyclo[3.2.1]oct-3-yl 1-isopropyl-2-oxo-1,2-dihydro-3-quinolinecarboxylate dihydrochloride]: the EC50 was 72.6 nM.

`CC(=O)CN1[C@@H]2CC[C@H]1C[C@@H](OC(=O)c1cc3ccccc3n(C(C)C)c1=O)C2` [Compound 52, Endo-8-(2-oxopropyl)-8-azabicyclo[3.2.1]oct-3-yl 1-isopropyl-2-oxo-1,2-dihydro-3-quinolinecarboxylate hydrochloride] gave an EC50 of 24.6 nM. `CC(C)n1c(=O)c(C(=O)O[C@H]2C[C@H]3CC[C@@H](C2)N3CC(N)=O)cc2ccccc21` [Compound 56, Endo-8-carbamoylmethyl-8-azabicyclo[3.2.1]oct-3-yl 1-isopropyl-2-oxo-1,2-dihydro-3-quinolinecarboxylate] gave an EC50 of 31.4 nM. Same read-out and setting: in the case of `CC(C)n1c(=O)c(C(=O)NC2CC3CCC(C2)N3CCCC(=O)O)cc2ccccc21` (stereo not drawn) [Compound 28, Endo-N-(8-(3-carboxypropyl)-8-azabicyclo[3.2.1]oct-3-yl)-1-isopropyl-2-oxo-1,2-dihydro-3-quinolinecarboxamide] it was 91.4 nM.

Staying with this assay, now noted: twitch response in guinea pig ileum; maximum contraction of sample compound = 100%; read-out: ED50 (concentration enhancing the twitch response by 50%).
As for `CN1[C@@H]2CC[C@H]1C[C@@H](NC(=O)c1cc3ccccc3[nH]c1=O)C2` [Comparative Compound 2, reference compound], the EC50 is greater than 3000 nM. For the molecule `CCCCn1c(=O)c(C(=O)N[C@H]2C[C@H]3CC[C@@H](C2)N3C)c(O)c2ccccc21` [Comparative Compound 4, reference compound], the EC50 is greater than 3000 nM.

Values taken from patent publication US5753673A, “Quinolinecarboxylic acid derivatives” (Taisho Pharmaceutical Co., Ltd., priority 1994, dated 1998).
